# Data reported in ChEMBL document CHEMBL1201862, “PubChem BioAssay data set” (2004).
#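 Each compound was tested at five concentrations against cells in 96-well plates for 48 hours. GI50 is the concentration that inhibits growth by half.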 Activity calls are given as the source filed them. Cut-off read from the data, not from the text of the source: active = GI50 up to about 1.1 µM and inactive = higher.
# What was measured:
# Assay in all cases: NCI anticancer screen, dose series, 48 h
# NCI-H23 = tested on: NCI-H23
# SK-MEL-2 = tested on: SK-MEL-2
# SK-OV-3 = tested on: SK-OV-3
# SNB-19 = tested on: SNB-19
# NCI/ADR-RES = tested on: NCI/ADR-RES
# RPMI-8226 = tested on: RPMI-8226
# OVCAR-8 = tested on: OVCAR-8
# UACC-62 = tested on: UACC-62
# UACC-257 = tested on: UACC-257
# OVCAR-5 = tested on: OVCAR-5
# A549 = tested on: A549
# SK-MEL-5 = tested on: SK-MEL-5
# A498 = tested on: A498
# NCI-H226 = tested on: NCI-H226
# PC-3 = tested on: PC-3
# HT-29 = tested on: HT-29
# ACHN = tested on: ACHN
# HCT-15 = tested on: HCT-15
# MDA-N = tested on: MDA-N
# CAKI-1 = tested on: CAKI-1
SMILES,GI50 (NCI-H23),GI50 (SK-MEL-2),GI50 (SK-OV-3),GI50 (SNB-19),GI50 (NCI/ADR-RES),GI50 (RPMI-8226),GI50 (OVCAR-8),GI50 (UACC-62),GI50 (UACC-257),GI50 (OVCAR-5),GI50 (A549),GI50 (SK-MEL-5),GI50 (A498),GI50 (NCI-H226),GI50 (PC-3),GI50 (HT-29),GI50 (ACHN),GI50 (HCT-15),GI50 (MDA-N),GI50 (CAKI-1)
O=C1Nc2ccccc2/C1=N/N=C1NCCCCN1,> 100 µM (inactive),> 100 µM (inactive),> 100 µM (inactive),> 100 µM (inactive),> 100 µM (inactive),> 100 µM (inactive),> 100 µM (inactive),> 100 µM (inactive),> 100 µM (inactive),> 100 µM (inactive),> 100 µM (inactive),> 100 µM (inactive),> 100 µM (inactive),> 100 µM (inactive),> 100 µM (inactive),> 100 µM (inactive),> 100 µM (inactive),> 100 µM,> 100 µM (inactive),> 100 µM (inactive)
O=C(c1c2c(cc3c1CC1(Cc4cc5c(cc4C1)CCCC5)C3)CCCC2)C(Br)Br,14.6 µM (inactive),19.2 µM (inactive),21.4 µM (inactive),> 40.9 µM (inactive),19.4 µM (inactive),5.04 µM (inactive),15 µM (inactive),14.9 µM (inactive),19.9 µM (inactive),22.9 µM (inactive),43.8 µM (inactive),5.24 µM (inactive),29.7 µM (inactive),6.38 µM (inactive),12.5 µM (inactive),20.3 µM (inactive),13.4 µM (inactive),16.1 µM,14.8 µM (inactive),11.3 µM (inactive)
Cc1ccc2c(n1)C(=O)c1cc(C)c(C)cc1C2=O,> 100 µM (inactive),> 100 µM (inactive),> 100 µM (inactive),> 100 µM (inactive),44 µM (inactive),> 100 µM (inactive),54.3 µM (inactive),45.9 µM (inactive),30.4 µM (inactive),68.9 µM (inactive),64.9 µM (inactive),12.4 µM (inactive),> 100 µM (inactive),> 100 µM (inactive),> 100 µM (inactive),36.9 µM (inactive),> 100 µM (inactive),75.9 µM,> 100 µM (inactive),> 100 µM (inactive)
COc1cc2c3c(cc(Cl)nc3c1OC)C(O)(CC(=O)c1ccccc1)C(=O)N2 (stereo not given),17 µM (inactive),15.1 µM (inactive),17.4 µM (inactive),17.7 µM (inactive),24.8 µM (inactive),2.55 µM (inactive),14 µM (inactive),6.18 µM (inactive),8.15 µM (inactive),19.1 µM (inactive),18 µM (inactive),15.9 µM (inactive),18.4 µM (inactive),21.5 µM (inactive),15.3 µM (inactive),21.7 µM (inactive),14.9 µM (inactive),21.5 µM,1.93 µM (inactive),17.5 µM (inactive)
CC(=O)Nc1ccc(-c2nc3cc(Cl)ccc3o2)cc1,> 50 µM (inactive),> 50 µM (inactive),> 50 µM (inactive),> 50 µM (inactive),> 50 µM (inactive),> 50 µM (inactive),> 50 µM (inactive),> 50 µM (inactive),> 50 µM (inactive),> 50 µM (inactive),> 50 µM (inactive),20.4 µM (inactive),> 50 µM (inactive),24.5 µM (inactive),> 50 µM (inactive),> 50 µM (inactive),> 50 µM (inactive),> 50 µM,> 50 µM (inactive),> 50 µM (inactive)
C/C=C/C=C\C1OC(O)([C@H](CC)C(=O)NC/C=C/C=C(\C)[C@H](OC)C(C)C2OC(\C=C/C=C/C=C(\C)C(=O)c3c(O)ccn(C)c3=O)[C@H](O)[C@@H]2O)C(O)C(O)C1(C)C (stereo not given in full),> 100 µM (inactive),> 100 µM (inactive),> 100 µM (inactive),> 100 µM (inactive),> 100 µM (inactive),20.3 µM (inactive),82.8 µM (inactive),96.2 µM (inactive),> 100 µM (inactive),> 100 µM (inactive),> 100 µM (inactive),88.1 µM (inactive),> 100 µM (inactive),> 100 µM (inactive),64.3 µM (inactive),55 µM (inactive),> 100 µM (inactive),> 100 µM,> 100 µM (inactive),> 100 µM (inactive)
COc1ccc(Nc2n[nH]c(NS(=O)(=O)c3cc(C)c(Cl)cc3S)n2)cc1,> 100 µM (inactive),> 100 µM (inactive),> 100 µM (inactive),> 100 µM (inactive),> 100 µM (inactive),> 100 µM (inactive),> 100 µM (inactive),> 100 µM (inactive),> 100 µM (inactive),> 100 µM (inactive),> 100 µM (inactive),> 100 µM (inactive),> 100 µM (inactive),> 100 µM (inactive),> 100 µM (inactive),> 100 µM (inactive),> 100 µM (inactive),> 100 µM,> 100 µM (inactive),> 100 µM (inactive)
